Laboratory results as given in patent US8586591B2, “Aminopyrazine derivative and medicine” (Nippon Shinyaku Co., Ltd., priority 2009, dated 2013).
pIC50: −log10 of the molar value. Structures can show the parent of a compound that is named as a salt.

Experiments:
[1] = biological target: T1, JAK2 tyrosine kinase (Homo sapiens, UniProt O60674); experiment: Test 1: inhibitory activity to JAK2 tyrosine kinase (ELISA); format: biochemical; settings: 25 μM ATP in substrate solution, 30° C. for 1 hour, n=2
T1 construct: purchased Carnabioscience Co
T1 sequence (O60674 whole entry): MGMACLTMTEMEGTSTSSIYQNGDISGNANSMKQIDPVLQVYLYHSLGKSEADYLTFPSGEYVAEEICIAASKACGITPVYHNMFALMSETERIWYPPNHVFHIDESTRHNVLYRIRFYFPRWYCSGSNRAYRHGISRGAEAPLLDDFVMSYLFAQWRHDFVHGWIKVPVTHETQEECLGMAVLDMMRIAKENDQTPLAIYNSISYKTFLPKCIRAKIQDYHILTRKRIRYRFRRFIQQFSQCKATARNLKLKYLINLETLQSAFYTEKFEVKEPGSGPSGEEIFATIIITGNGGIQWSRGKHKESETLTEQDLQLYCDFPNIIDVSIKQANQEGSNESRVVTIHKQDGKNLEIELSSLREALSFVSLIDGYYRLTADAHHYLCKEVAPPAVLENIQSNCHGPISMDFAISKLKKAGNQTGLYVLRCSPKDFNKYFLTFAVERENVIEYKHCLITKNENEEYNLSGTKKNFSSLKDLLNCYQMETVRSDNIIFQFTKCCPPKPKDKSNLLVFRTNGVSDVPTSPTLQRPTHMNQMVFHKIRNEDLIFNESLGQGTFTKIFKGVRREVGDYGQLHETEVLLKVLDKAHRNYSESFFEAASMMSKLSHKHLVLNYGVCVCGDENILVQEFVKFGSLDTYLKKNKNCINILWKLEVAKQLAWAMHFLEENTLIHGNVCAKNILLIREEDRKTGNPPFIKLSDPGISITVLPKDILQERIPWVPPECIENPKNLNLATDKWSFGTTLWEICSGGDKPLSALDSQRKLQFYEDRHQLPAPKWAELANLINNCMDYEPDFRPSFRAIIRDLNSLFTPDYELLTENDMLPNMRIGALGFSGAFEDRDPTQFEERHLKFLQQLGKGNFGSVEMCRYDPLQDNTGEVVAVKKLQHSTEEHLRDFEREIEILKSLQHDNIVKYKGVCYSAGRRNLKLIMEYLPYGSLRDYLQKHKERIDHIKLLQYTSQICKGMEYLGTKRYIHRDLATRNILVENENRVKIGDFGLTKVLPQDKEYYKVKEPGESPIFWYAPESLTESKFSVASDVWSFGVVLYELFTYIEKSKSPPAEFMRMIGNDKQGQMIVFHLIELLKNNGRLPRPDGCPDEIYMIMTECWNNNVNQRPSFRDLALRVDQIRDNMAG
In short: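 This is an ELISA read at A450 (HRP anti-phosphotyrosine antibody, TMB) of biotin-peptide phosphorylation captured on streptavidin. Enzyme solution was 0.75 nM JAK2, and the substrate solution was 625 nM peptide with 25 μM ATP in Tris pH 7.5 buffer. The reaction ran 1 h at 30 °C with compounds in duplicate, and IC50 was fitted non-linearly.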

[2] = biological target: T2, JAK3 tyrosine kinase (Homo sapiens, UniProt P52333); experiment: Test 1: inhibitory activity to JAK3 tyrosine kinase (ELISA); format: biochemical; settings: 25 μM ATP in substrate solution, 30° C. for 1 hour, n=2
T2 construct: purchased Carnabioscience Co
T2 sequence (P52333 1-1124): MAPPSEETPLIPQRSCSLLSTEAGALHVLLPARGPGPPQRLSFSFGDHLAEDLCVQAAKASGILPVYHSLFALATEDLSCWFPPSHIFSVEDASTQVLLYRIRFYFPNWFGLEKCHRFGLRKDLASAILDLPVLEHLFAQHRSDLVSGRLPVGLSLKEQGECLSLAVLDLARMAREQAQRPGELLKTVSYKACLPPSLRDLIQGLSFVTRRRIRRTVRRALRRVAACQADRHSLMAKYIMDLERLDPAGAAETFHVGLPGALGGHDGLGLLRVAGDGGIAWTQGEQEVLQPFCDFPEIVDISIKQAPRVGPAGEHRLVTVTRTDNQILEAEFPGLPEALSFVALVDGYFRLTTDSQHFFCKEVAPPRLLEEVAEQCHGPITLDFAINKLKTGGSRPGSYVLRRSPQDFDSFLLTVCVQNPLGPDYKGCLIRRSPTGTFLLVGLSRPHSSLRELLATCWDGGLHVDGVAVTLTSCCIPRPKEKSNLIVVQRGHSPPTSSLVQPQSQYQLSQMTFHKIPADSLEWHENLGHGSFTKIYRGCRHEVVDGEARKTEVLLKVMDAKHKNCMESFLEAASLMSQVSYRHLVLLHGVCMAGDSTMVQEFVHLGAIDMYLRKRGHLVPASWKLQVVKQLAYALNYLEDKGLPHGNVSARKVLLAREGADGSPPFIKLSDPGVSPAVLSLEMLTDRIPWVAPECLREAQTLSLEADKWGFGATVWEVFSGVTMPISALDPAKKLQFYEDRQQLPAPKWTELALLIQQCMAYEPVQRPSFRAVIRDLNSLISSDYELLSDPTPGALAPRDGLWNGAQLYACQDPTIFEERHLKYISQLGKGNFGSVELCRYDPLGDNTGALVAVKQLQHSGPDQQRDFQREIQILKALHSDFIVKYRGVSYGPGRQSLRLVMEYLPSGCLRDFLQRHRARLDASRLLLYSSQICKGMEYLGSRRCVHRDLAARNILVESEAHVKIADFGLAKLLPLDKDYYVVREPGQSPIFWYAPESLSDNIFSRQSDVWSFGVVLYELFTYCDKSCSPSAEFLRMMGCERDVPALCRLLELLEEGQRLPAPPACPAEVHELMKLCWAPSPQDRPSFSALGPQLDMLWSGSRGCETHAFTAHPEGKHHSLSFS
In short: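 ELISA of JAK3 kinase activity with absorbance read at 450 nm. Compounds were tested from DMSO dilution series at 100-fold the measurement concentrations (1000–0.01 μM), diluted up to 20 times in assay buffer, against a DMSO negative control. IC50 was estimated by non-linear regression of absorbance.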

Compound | pIC50 [1] | pIC50 [2]
C[C@H](Nc1nc(Nc2cnccn2)cc(N2CC(O)C2)n1)c1ccc(F)cc1 [Example 72, (S)-1-{2-[1-(4-Fluorophenyl)ethylamino]-6-(pyrazin-2-ylamino)pyrimidin-4-yl}azetidin-3-ol hydrochloride] | 9.02 | 7.51
C[C@H](Nc1nc(Nc2cnccn2)cc(-c2cc[nH]c2)n1)c1ccc(F)cc1 [Example 66, (S)—N^2-[1-(4-Fluorophenyl)ethyl]-N^4-(pyrazin-2-yl)-6-(1H-pyrrol-3-yl)pyrimidine-2,4-diamine] | 8.74 | 7.43
C[C@H](Nc1nc(Nc2cnccn2)cc(N[C@H](CO)Cc2ccccc2)n1)c1ccc(F)cc1 [Example 87, (S)-2-{2-[(S)-1-(4-Fluorophenyl)ethylamino]-6-(pyrazin-2-ylamino)pyrimidin-4-ylamino}-3-phenylpropan-1-ol] | 7.85 | 6.35
C[C@H](Nc1nc(Nc2cnccn2)cc(OCC2CCCO2)n1)c1ccc(F)cc1 (stereo partly drawn) [Example 94, N^2-[(S)-1-(4-Fluorophenyl)ethyl]-N^4-(pyrazin-2-yl)-6-[(tetra hydrofuran-2-yl)methoxy]pyrimidine-2,4-diamine] | 8.77 | 7.11
C[C@H](Nc1nc(Nc2cnccn2)ccc1C(=O)N(C)C)c1ccc(F)cc1 [Example 186, (S)-2-[1-(4-Fluorophenyl)ethylamino]-N,N-dimethyl-6-(pyrazin-2-ylamino) nicotinamide] | 8.26 | 6.62
C[C@H](Nc1nc(Nc2cnccn2)cc(-c2cn[nH]c2)n1)c1ccc(F)cc1 [Example 34, (S)—N^2-[1-(4-Fluorophenyl)ethyl]-N^4-(pyrazin-2-yl)-6-(1H-pyrazol-4-yl)pyrimidine-2,4-diamine maleate] | 9.29 | 7.23
CCCCNC(=O)c1cc(Nc2cnccn2)nc(N[C@@H](C)c2ccc(F)cc2)c1 [Example 169, (S)—N-Butyl-2-[1-(4-fluorophenyl)ethylamino]-6-(pyrazin-2-ylamino) isonicotinamide] | 8.52 | 6.30
C[C@H](Nc1cc(C(=O)NCC(F)(F)F)cc(Nc2cnccn2)n1)c1ccc(F)cc1 [Example 171, (S)-2-[1-(4-Fluorophenyl)ethylamino]-6-(pyrazin-2-ylamino)-N-(2,2,2-trifluoroethyl) isonicotinamide] | 8.72 | 6.24
C[C@H](Nc1cc(-c2cnco2)cc(Nc2cnccn2)n1)c1ccc(F)cc1 [Example 8, (S)—N^2-[1-(4-Fluorophenyl)ethyl]-4-(oxazol-5-yl)-N^6-(pyrazin-2-yl)pyridine-2,6-diamine] | 8.96 | 7.09
C[C@H](Nc1nc(NCc2ccncc2)cc(Nc2cnccn2)n1)c1ccc(F)cc1 [Example 108, (S)—N^2-[1-(4-Fluorophenyl)ethyl]-N^4-(pyrazin-2-yl)-N^6-(pyridin-4-ylmethyl)pyrimidine-2,4,6-triamine] | 8.96 | 7.25
CCS(=O)(=O)NC1CN(c2cc(Nc3cnccn3)nc(N[C@@H](C)c3ccc(F)cc3)n2)C1 [Example 190, (S)—N-(1-{2-[1-(4-Fluorophenyl)ethylamino]-6-(pyrazin-2-ylamino)pyrimidin-4-yl}azetidin-3-yl)ethanesulfonamide] | 8.92 | 7.24
CC(C)[C@@H](CO)Nc1cc(Nc2cnccn2)nc(N[C@@H](C)c2ccc(F)cc2)n1 [Example 99, (S)-2-{2-[(S)-1-(4-Fluorophenyl)ethylamino]-6-(pyrazin-2-ylamino)pyrimidin-4-ylamino}-3-methylbutan-1-ol hydrochloride] | 8.62 | 6.70
CC(Nc1cc(Nc2cnccn2)nc(N[C@@H](C)c2ccc(F)cc2)n1)c1cccnc1 (stereo partly drawn) [Example 104, (S)—N^2-[1-(4-Fluorophenyl)ethyl]-N^4-(pyrazin-2-yl)-N^6-[1-(pyridin-3-yl)ethyl]pyrimidine-2,4,6-triamine] | 9.00 | 7.41
